Results published in patent publication US8119812B2, “Thiazolidinone derivative” (SBI Biotech Co., Ltd., priority 2009, dated 2012).

Each compound was assayed on HeLa cells (assay: Cell proliferation inhibitory activity, WST-1 assay, HeLa cells). Settings: FIG. 1; incubation for 24 hours after adding compound; absorbance at 450 nm (WST-1); cell line not given.
Assay type: cell-based
Description: Cell proliferation inhibitory activity of the thiazolidinone derivatives shown in Tables 2 to 21 and 26 to 29 were evaluated according to the following procedure.
HeLa cells (ATCC) were cultured in a medium (DMEM-10% FCS-Penicillin/Streptomycin) on 10-cm dishes. The medium was removed from the HeLa cells (ATCC) in healthy growth conditions (70 to 90% confluent), the cells were detached by treating with 2 ml of trypsin (TrypL Express, GIBCO), and then the cells were collected using the same medium.
After the collected cells were suspended in the medium at a concentration of 5×10^4 cells/mL, 100 μL, each of the cells were seeded on 96-well plates (FALCON, 3530) at a concentration of 5×10^3 […]. Each medium alone without cells was added to the blank wells. The wells were incubated in a 5% CO2 incubator. The culture media used are as follows.
HeLa cells: DMEM-10% FCS-Penicillin/Streptomycin,
The following day after the start of culturing, the medium was replaced with that including candidate compounds. At the beginning, the candidate compounds were diluted with DMSO, and a 10-step dilution series from 0 μM to 12.5 mM was prepared. 249 μL of the medium was added to 1.5-ml tubes. Then, 1 μL of the compound diluted with DMSO was added thereto at each concentration, and this was mixed. By this procedure, the ratio of DMSO included becomes 1/250. More specifically, in case of the following dilution series, the final concentrations of candidate compounds are as follows.
After removing the medium in wells, each candidate compound was added in duplicate to each well at a volume of 100 μL per one concentration. […]
On the next day or the day after the next day (24 to 48 hours later), 10 μL of Cell Proliferation Reagent WST-1 (ROCHE) was added to each well. […] The formed pigment can be assayed by measuring the absorbance at 450 nm. After incubation for an hour in a CO2 incubator, the absorbance at 450 nm was measured using a microplate reader. The values were evaluated by subtracting the blank value, and plotted by curve-fitting using the Prism software, and IC50 was calculated.

Question: `COC(=O)N(C)CCOc1ccc(/N=C2/NC(=O)/C(=C/c3cnc(NC(=O)C4CC4)s3)S2)c(C)c1` [Compound 137, (2Z,5Z)-N-(2-{4-[(5-{[2-(cyclopropylcarbonylamino) (1,3-thiazol-5-yl)]methylene}-4-oxo(1,3-thiazolidin-2-ylidene))azamethyl]-3-methylphenoxy}ethyl) methoxy-N-methylcarboxamide] was tested. Which cell proliferation-inhibiting effect did it give?
Answer: Its cell proliferation-inhibiting effect is “strong inhibitory effect”.

Question: `Cc1cc(OCCN(C)C)ccc1/N=C1/NC(=O)/C(=C/c2cnc(NC(=O)C3CC3)s2)S1` [Compound 119, (2Z,5Z)-N-(5{[2-({4-[2-(dimethylamino)ethoxy]-2-methylphenyl}azamethylene)-4-oxo(1,3-thiazolidin-5-ylidene)]methyl}(1,3-thiazol-2-yl))cyclopropylcarboxamide] was tested. Which cell proliferation-inhibiting effect did it give?
Answer: The cell proliferation-inhibiting effect was “strong inhibitory effect”.

Question: For `Cc1cc(OC2CCN(C)C2)ccc1/N=C1/NC(=O)/C(=C/c2cnc(NC(=O)C3CC3)s2)S1` (stereo not drawn) [Compound 139, (2Z,5Z)-cyclopropyl-N-{5-[(2-{[2-methyl-4-(1-methylpyrrolidin-3-yloxy)phenyl]azamethylene}-4-oxo(1,3-thiazolidin-5-ylidene))methyl] (1,3-thiazol-2-yl)}carboxamide], which cell proliferation-inhibiting effect is on record?
Answer: Its cell proliferation-inhibiting effect is “strong inhibitory effect”.
